Source: patent US11278595B2, “Peptides comprising non-natural amino acids and methods of making and using the same” (Longevity Biotech, Inc., priority 2013, dated 2022)
Numbered stars: 1 amine (or outer) side, 2 acyl side, 3 side chain; on linkers, the order of the positions; unused ones are H or OH. Square brackets hold non-standard residues; d marks the D form. Peptide text beside a SMILES is read from it. ξ: configuration not given here. ξ(4-Aminopyrrolidine-3-CO) = O=C(C1CNCC1N[*:1])[*:2]; X3 = O=C(C1CCCC1N[*:1])[*:2]; β3hK = NCCCC[C@H](N)CC(=O)O; βAla = NCCC(=O)O

Assays:
protease = assay: In vitro protease stability assay; format: in vitro ADME; details: FIG. 1; compared to Ro 25-1553 (one lactam bridge)
Method: In Vitro Stability Assay: Stock solutions of the both the naturally occurring peptides as well as peptide analogs are prepared at a concentration of 250 μM (based on UV absorbance) in a 2% DMSO solution of appropriate buffering conditions. Standard solution of proteinase K in addition to other common animal proteases (i.e. Cathepsins, Trypsins, dipeptidyl peptidase IV and chymotrypsin) were prepared at the following concentrations in appropriate buffers separately: Protease K: 250 μg/ml, Chymotrypsin 25 μg/mL and DPP-IV 40 units/ml. For a Protease K assay, the following recipe was followed: 1 μL enzyme was added to 5 μL peptide analog in 44 μL PBS. […] 50 μL of the resulting quenched reaction are then injected onto an analytical reverse phase HPLC, and the amount of starting peptide present quantified by integration of the appropriate chromatogram peak via absorbance at either 220 or 280 nm. […] Half-lives are determined by fitting time dependent peptide concentration to an exponential decay using GraphPad Prism. Samples for some time points will be analyzed by mass spectrometery, and the products observed are used to identify amide bonds cleaved in the course of the reaction. The relative stability enhancement is determined through the comparison of the various analogs with its naturally occurring peptide counterpart. […]

[1] = system: anti-CD3 stimulated naïve CD4+CD25− T cells; assay: Inhibition assay of suppressive function of Treg from treated donor mice; format: cell-based; details: compared to PBS Treg populations; 1:1 Treg to responder ratio; donors injected daily/5 days/i.p.
Method: Immediately following the final dose, mice were sacrificed, and single-cell suspensions were prepared from inguinal lymph nodes and spleens. CD4+ T cell populations from spleens and lymph nodes were enriched by negative selection with CD4-enrichment columns (R&D Systems, Minneapolis, Minn.), followed by CD25-PE positive selection with AutoMACS (Miltenyi Biotec, Auburn, Calif.). As determined by flow cytometric analysis, populations of Tregs and Teffs were consistently […] using this method (12). T cells were cultured in complete RPMI 1640 (RPMI 1640 [Invitrogen, Carlsbad, Calif.] supplemented with 10% FBS, 2 mM L-gluta-mine, 25 mM HEPES, 1 mM sodium pyruvate, […] nonessential amino acids, […] 2-ME, 100 U/ml penicillin, and […] streptomycin [Mediatech, Manassas, Va.]) in the presence of anti-CD3 (145-2C11; BD Pharmingen, San Diego, Calif.), 4YSyn, or N-4YSyn. […]
To assess whether VIP, LBT-V101 (SEQ ID NO: 22), LBT-V218 (SEQ ID NO: 18) and PBS treated splenocytes (SPC) suppress effector T cell proliferative responses, we evaluated SPC co-cultures from VIP-treated donors for their proliferative capacity in the presence of either anti-CD3. […] To test this hypothesis, we evaluated CD4+CD25+CD62Llow Treg isolated from naïve and VIP-treated mice for their capacity to inhibit CD3-mediated proliferation of CD4+CD25− naïve T cells. […]

[2] = system: dopaminergic neurons (TH+/Nissl+) in the SN; assay: Parkinson's disease (MPTP) model, adoptive transfer of splenocytes from drug-treated donors; format: in vivo; details: MPTP mice; donors 15 ug/day/5 days; FIG. 5
Method: Parkinson's Disease (PD) Model (not prophetic): Male C57/BL6 mice, 8-12 w old, housed in the IACUC approved housing were administered an analog described herein as well as a pharmaceutically acceptable carrier for five days at a dose between (0.1 nM and 100 nM). Thereafter, SPC and Tregs from the mice are harvested and then transferred to another set of MPTP intoxicated mice using the following protocol.
Immediately following the final dose, mice were sacrificed, and single-cell suspensions were prepared from inguinal lymph nodes and spleens. […] As determined by flow cytometric analysis, populations of Tregs and Teffs were consistently […] using this method (12). […]
Mice were postmortem transcardially perfused with PBS, followed by 4% para-formaldehyde (Sigma-Aldrich). […] Fluorojade C (FJ-C) staining (Millipore, Billerica, Mass.) was performed on adjacent sections, according to the manufacturer's protocol, to assess de-generating neurons and was quantified using ImageJ. Overall, dopaminergic neuron survival was assessed 7 d following MPTP intoxication and resolution of cell death processes with polyclonal Abs to mouse tyrosine hydroxylase (TH; 1:1000; EMD Chemicals/Calbiochem, San Diego, Calif.) and were counterstained for Nissl substance by thionin staining. […] Quantitation of striatal TH (1:500; EMD Chemicals/Calbiochem, Gibbstown, N.J.) was performed by densitometric analysis. […]

CC(=O)N[C@@H](Cc1c[nH]cn1)C(=O)NC1CCCC1C(=O)N[C@@H](CC(=O)O)C(=O)N[C@@H](C)C(=O)NC1CCCC1C(=O)N[C@@H](Cc1ccccc1)C(=O)N[C@H](C(=O)N[C@@H](CCC(=O)O)C(=O)N[C@@H](CC(N)=O)C(=O)N[C@@H](Cc1ccc(O)cc1)C(=O)N[C@H](C(=O)N[C@@H](CCCCN)C(=O)N[C@@H](CC(C)C)C(=O)N[C@@H](CCCNC(=N)N)C(=O)N[C@@H](CCCCN)C(=O)N[C@@H](CCC(N)=O)C(=O)N[C@@H](CC(C)C)C(=O)N[C@@H](C)C(=O)N[C@@H](C)C(=O)NC1CNCC1C(=O)N[C@@H](CCCCN)C(=O)N[C@@H](Cc1ccc(O)cc1)C(=O)NC1CCCC1C(=O)N[C@@H](CC(N)=O)C(=O)N[C@@H](CC(=O)O)C(=O)N[C@@H](CC(C)C)C(=O)N[C@@H](CCCCN)CC(=O)N[C@@H](CCCCN)C(=O)NCC(=O)NCCC(=O)N[C@H](C(N)=O)[C@@H](C)O)[C@@H](C)O)[C@@H](C)O (stereo partly drawn) [LBT-V208, Ac-HxDAxFTENYTKLRKQLAAzKYxNDLkKGgT] (Ac-H[X3]DA[X3]FTENYTKLRKQLAA[ξ(4-Aminopyrrolidine-3-CO)]KY[X3]NDL[β3hK]KG[βAla]T-NH2)
in-vitro protease stability (protease): stability is greater

HSDAVFTDNYTRLRKQMAVKKYLNSILN [VIP]
suppressive capacity of Treg on T cell proliferation [1]: enhanced suppressive capacity | neuroprotection after adoptive transfer of splenocytes from drug-treated donors [2]: neuroprotective
